Where a SMILES comes first, the peptide text is derived from it. [ ]: non-standard residue; d: D form. Dmt = Cc1cc(O)cc(C)c1C[C@H](N)C(=O)O
System: LUVs with POPC only
Assay: SS-31 binding isotherms by endogenous 2′,6′-Dmt fluorescence
Conditions: even at the highest lipid concentrations used
Source text: The interaction of basic amphipathic peptides with negatively charged membranes depends on the electric field originating from the bilayer surface as well as specific electrostatic and hydrophobic interactions between the peptide and lipids (Fig. S2). The first objective of this study was to quantitatively evaluate the binding of SS-31 to model membranes with specific lipid composition. For spectroscopic analysis of SS-31 binding, we made use of the endogenous spectral properties of the 2′,6′-dimethyltyrosine (2′,6′-Dmt) side chain at the second position in the peptide. Our initial spectral characterization of SS-31 confirmed the feasibility of using endogenous peptide fluorescence to quantify peptide-membrane interactions (supporting Results A and B and Figs. S3 and S4). We therefore proceeded to measure the binding of SS-31 to large unilamellar vesicles (LUVs) containing anionic lipids in a host background of the zwitterionic lipid 1-palmitoyl-2-oleoyl-sn-glycero-3-phosphocholine (POPC, 16:0/18:1 PC). […]
Figure 2. […] A–C, fluorescence-based measurements. […] Statistical differences within each data set were determined relative to TOCL-containing membranes: •, p < 0.05; ••, p < 0.01. […]

Q: How did the “binding in the absence of anionic lipid” value turn out when Cc1cc(O)cc(C)c1C[C@H](NC(=O)[C@H](N)CCCNC(=N)N)C(=O)N[C@@H](CCCCN)C(=O)N[C@@H](Cc1ccccc1)C(N)=O [SS-31, D-Arg-2′6′-dimethyl-Tyr-Lys-Phe-NH2] (H-[dR][Dmt]KF-NH2) was run?
A: negligible
